{
  "source": "patent US6924414B2",
  "about": "“Muir-torre-like syndrome in Fhit deficient mice” (Thomas Jefferson University, priority 2000, dated 2005)",
  "key": {"[1]": {"tested_on": "Fhit +/+ mice", "test": "Carcinogenicity study: NMBA tumor induction in Fhit +/+ mice", "assay_type": "in vivo, mouse (C57BL/6J X 129/SvJ) F1", "method": "(§1) (C57BL/6J X 129/SvJ) F1 mice (B6129F1s) that were Fhit +/+ or +/− were produced. 18 Fhit +/+ and 22 Fhit +/− mice (30-46 weeks) were given 8 intragastric doses of NMBA (Ash Stevens, Detroit, Mich.) over the course of 3 weeks at 2 mg/kg body weight. About half the mice were sacrificed six weeks after the final NMBA dose and the remaining mice at ten weeks. Tumor incidence differences were analyzed by two-tailed Fisher's exact test (Armitage and Berry, 1987, Statistical Methods in Medical Research, 2nd Ed., Blackwell Scientific, Oxford). For comparison, four untreated Fhit +/− mice (54-59 weeks old) and one untreated Fhit +/+ mouse (59 weeks old) were similarly autopsied. At autopsy, whole esophagi and stomachs were removed and opened longitudinally. Other tissues with apparent tumors were also examined. The number of animals bearing tumors in the esophagus, forestomach, squamocolumnar junction with the glandular stomach (SCJ) and other tissues were scored. Tissues were fixed in buffered formalin and examined histologically after hematoxylin and eosin (H&E) staining for the presence of hyperkeratosis, parakeratosis, dysplasia, papillomas, adenomas and carcinomas."}, "[2]": {"tested_on": "Fhit exons 4 through 9", "test": "Fhit sequence analysis of NMBA-induced tumors", "design": "species or system mouse", "conditions": "DNA from sebaceous tumors of mice 21, 27, 31 and squamous papillomas of mice 25, 27", "description": "Primer pairs flanking each of the human FHIT exons (Druck et al., […], Cancer Res. 57:504-512) and the mouse FHIT coding exons were used in PCR amplification of DNA from MTS cases or mouse tumors, respectively. Primer pairs surrounding the mouse FHIT exons were previously published (Pekarsky et al., 1998, Cancer Res. 58:3401-3408) for exons 5 and 6 or newly designed […]\nThe products were purified with a PCR purification kit (Qiagen) before sequencing using Taq DyeDeoxy Terminator Cycle Sequencing Kits (ABI). Sequencing reaction products were electrophoresed and recorded on a 377 DNA sequencer (ABI). Southern Blot Analysis"}, "[3]": {"tested_on": "esophageal and forestomach tumors", "conditions": "administered by gavage or in the drinking water; cited from earlier work"}, "[4]": {"tested_on": "Fhit +/− mice", "test": "Carcinogenicity study: NMBA tumor induction in Fhit +/− mice", "assay_type": "in vivo, mouse (C57BL/6J X 129/SvJ) F1", "method": "as §1"}, "[5]": {"conditions": "Fhit +/+, individual mice, 10 weeks after NMBA, T = tumors"}, "[6]": {"conditions": "Fhit +/−, individual mice, 10 weeks after NMBA, T = tumors"}},
  "note": "“And” between values parts separate entries of the source, which are not always exact repeats. Equal values may be shown once. “Also recorded” adds a separate entry of the source. Marks after values point to notes of the source that are not given here.",
  "data": [
    {"substance": "N-nitrosomethylbenzylamine [NMBA]", "values": [
      {"measurement": "Fraction of tumor bearing animals, Fore stomach", "setting": "[1]; 6 wk post-treatment, Fhit +/+", "value": "1/10"},
      {"measurement": "Fraction of tumor bearing animals, SCJ", "setting": "[1]; 6 wk post-treatment, Fhit +/+", "value": "0/10"},
      {"measurement": "Tumor Bearing Mice", "setting": "[1]; 6 wk post-treatment, Fhit +/+", "value": "2/10"},
      {"measurement": "Fraction of tumor bearing animals, Esoph", "setting": "[1]; 6 wk post-treatment, Fhit +/+, number of mice with tumors/number of mice, 8 intragastric doses 2 mg/kg", "value": "1/10"},
      {"measurement": "Fraction of tumor bearing animals, Esoph", "setting": "[1]; 10 wk post-treatment, Fhit +/+", "value": "0/8"},
      {"measurement": "Fraction of tumor bearing animals, Fore stomach", "setting": "[1]; 10 wk post-treatment, Fhit +/+", "value": "1/8"},
      {"measurement": "Fraction of tumor bearing animals, SCJ", "setting": "[1]; 10 wk post-treatment, Fhit +/+", "value": "1/8"},
      {"measurement": "Fraction of tumor bearing animals, Sebaceous", "setting": "[1]; 10 wk post-treatment, Fhit +/+", "value": "0/8"},
      {"measurement": "Tumor Bearing Mice", "setting": "[1]; 10 wk post-treatment, Fhit +/+", "value": "2/8"},
      {"measurement": "Extragastric tumors", "setting": "[1]; Fhit +/+ mice", "value": "not observed"},
      {"measurement": "Comments (by histology)", "setting": "[1]; Fhit +/+, individual mice, 10 weeks after NMBA", "value": "sq papillomas; also recorded: papillary hyperplasia, esophagus; also recorded: adenoma"},
      {"measurement": "Phenotype Esoph.", "setting": "[1]; [5]", "value": "thick"},
      {"measurement": "Phenotype Forestomach", "setting": "[1]; [5]", "value": "thick; also recorded: sm. T"},
      {"measurement": "Phenotype SCJ", "setting": "[1]; [5]", "value": "thick and 7T+3 mm"},
      {"measurement": "body wt. (amount of wt. change during the experiment)", "setting": "[1]; Fhit +/+, individual mice, 10 weeks after NMBA, given with ↑", "value": "↑1 g and ↑4 g (3×) and ↑6 g and ↑3 g (2×) and ↑2 g"},
      {"measurement": "Mice developing sebaceous tumors", "setting": "[1]; NMBA treated Fhit +/+ mice", "value": "none"},
      {"measurement": "Esophageal squamous papilloma by histological examination", "setting": "[1]; six weeks after NMBA, Fhit +/+", "value": "1/10"},
      {"measurement": "Mice showing a very small tumor of the esophagus or forestomach on inspection", "setting": "[1]; six weeks after treatment, Fhit +/+", "value": "two of ten"},
      {"measurement": "Mice with tumors", "setting": "[1]; six weeks post NMBA, Fhit +/+, histology", "value": 20, "unit": "%"},
      {"measurement": "Tumor burden (mice exhibiting tumors)", "setting": "[1]; ten weeks post NMBA, Fhit +/+", "value": 25, "unit": "%"},
      {"measurement": "Mice exhibiting tumors on inspection", "setting": "[1]; ten weeks, Fhit +/+", "value": "two of eight"},
      {"measurement": "NMBA-induced mutations within Fhit exons 4 through 9", "setting": "[2]", "value": "No mutations were detected"},
      {"measurement": "Tumor induction", "setting": "[3]", "value": "induce both esophageal and forestomach tumors"},
      {"measurement": "Fraction of tumor bearing animals, Fore stomach", "setting": "[4]; 6 wk post-treatment, Fhit +/−", "value": "5/10"},
      {"measurement": "Fraction of tumor bearing animals, SCJ", "setting": "[4]; 6 wk post-treatment, Fhit +/−", "value": "4/10"},
      {"measurement": "Tumor Bearing Mice", "setting": "[4]; 6 wk post-treatment, Fhit +/−", "value": "7/10"},
      {"measurement": "Fraction of tumor bearing animals, Esoph", "setting": "[4]; 6 wk post-treatment, Fhit +/−, 1 esophagus showed dysplasia", "value": "0/10^b"},
      {"measurement": "Fraction of tumor bearing animals, Esoph", "setting": "[4]; 10 wk post-treatment, Fhit +/−", "value": "2/12"},
      {"measurement": "Fraction of tumor bearing animals, Fore stomach", "setting": "[4]; 10 wk post-treatment, Fhit +/−", "value": "10/12"},
      {"measurement": "Fraction of tumor bearing animals, SCJ", "setting": "[4]; 10 wk post-treatment, Fhit +/−", "value": "5/12"},
      {"measurement": "Fraction of tumor bearing animals, Sebaceous", "setting": "[4]; 10 wk post-treatment, Fhit +/−", "value": "7/12"},
      {"measurement": "Tumor Bearing Mice", "setting": "[4]; 10 wk post-treatment, Fhit +/−", "value": "12/12"},
      {"measurement": "Comments (by histology)", "setting": "[4]; Fhit +/−, individual mice, 10 weeks after NMBA", "value": "sq. carcinoma forestomach, sq. pap. SCJ; also recorded: sq. pap. forestomach, Barretts-like gastric mucosa SCJ; also recorded: sq. pap. and adenoma forestomach; also recorded: sq. pap. and sq. carcinoma forestomach; also recorded: sq. pap. esoph, forestomach, SCJ; also recorded: sebaceous adnexal tumor; also recorded: sq. pap. esoph and forestomach, seb. tumor; also recorded: sq. pap. forestomach, sebaccous tumor; also recorded: hyperplastic gastric mucosa, SCJ sq. pap. seb. tumor; also recorded: forestomach sq. papillomas; sebaceous tumor"},
      {"measurement": "Phenotype Forestomach", "setting": "[4]; [6]", "value": "2T and few sm. T and multiple T (3×) and T.2-3 mm"},
      {"measurement": "Phenotype SCJ", "setting": "[4]; [6]", "value": "few T; also recorded: multiple T"},
      {"measurement": "body wt. (amount of wt. change during the experiment)", "setting": "[4]; Fhit +/−, individual mice, 10 weeks after NMBA, given with ↑", "value": "↑3 g (2×) and ↑2 g (3×) and ↑4 g (4×) and ↑8 g (2×) and ↑6 g"},
      {"measurement": "Mice with large (>5×5 mm) sebaceous tumors", "setting": "[4]; NMBA treated Fhit +/− mice under 1 yr. of age", "value": "5 of 12"},
      {"measurement": "Mice with one or more subcutis tumors in abdominal, mammary or axial area on autopsy", "setting": "[4]; autopsy at 10 weeks, Fhit +/−", "value": "more than 50%"},
      {"measurement": "Mice developing a spectrum of visceral and skin tumors", "setting": "[4]; by ten weeks after NMBA exposure, Fhit +/−", "value": "all"},
      {"measurement": "Mice showing tumors in the subcutis of the abdomen (visible before autopsy)", "setting": "[4]; by ten weeks after the final dose, Fhit +/−", "value": "three"},
      {"measurement": "Mice showing one or more small tumors on inspection of whole esophagus and stomach", "setting": "[4]; six weeks after treatment, Fhit +/−", "value": "seven of ten"},
      {"measurement": "Mice with tumors", "setting": "[4]; six weeks post NMBA, Fhit +/−, histology", "value": 70, "unit": "%"},
      {"measurement": "Tumor burden (mice exhibiting tumors)", "setting": "[4]; ten weeks post NMBA, Fhit +/−", "value": 100, "unit": "%"},
      {"measurement": "Mice showing apparent tumors in forestomach, squamocolumnar junction and/or other tissues", "setting": "[4]; ten weeks, Fhit +/−, inspection", "value": "eleven of twelve"}
    ]}
  ]
}
